Test results from ChEMBL document CHEMBL3886610, “Perfluorinated 5,6-dihydro-4H-1,3-oxazin-2-amine compounds as beta-secretase inhibitors and methods of use” (2016).

Assays:
Beta-secretase 1 [1] = target: T1, Beta-secretase 1 (Homo sapiens, UniProt P56817); assay: In Vitro BACE Cell-Based Assay: The cell-based assay measures inhibition or reduction of Aβ40 in conditioned medium of test compound treated cells expressing amyloid precursor protein. Cells stably expressing Amyloid Precursor Protein (APP) were plated at a density of 40K cells/well in 96 well plates (Costar). The cells were cultivated for 24 hours at 37° C. and 5% CO2 in DMEM supplemented with 10% FBS. The test compounds were then added to cells in 10-point dose response concentrations with the starting concentration being either 100 uM or 10 uM. The compounds were diluted from stock solutions in DMSO and the final DMSO concentration of the test compounds on cells was 0.1%. After 24 h of incubation with the test compounds the supernatant conditioned media was collected and the Aβ 40 levels were determined using a sandwich ELISA.
Beta-secretase 1 [2] = target: T1, Beta-secretase 1; assay: In Vitro Enzymatic BACE FRET Assay: The assay buffer used in this screen is 0.05 M acetate, pH 4.2, 10% DMSO final, 100 uM genapol (which is a nonionic detergent, below its Critical Micelle Concentration). The Beta Secretase enzyme (0.2 nM) is pre-incubated for one hour with inhibitors, typically in about 1 uL of DMSO according to a serial dilution, are added thereto. This assay is effectively started by the addition of FRET substrate (50 nM) and the combination is incubated for one hour. The FRET assay is terminated with by addition of Tris buffer, which raises the pH to neutrality, and the fluorescence is determined. The FRET substrate is a peptide with commercially available fluorophore and quencher, on opposite sides of the BACE cleavage site. Proteolytic cleavage of the FRET substrate releases quenching of fluorescence (excitation 488 nm and […]).
Cathepsin D = Cathepsin D (Homo sapiens, UniProt P07339); assay: In Vitro Enzymatic Cathepsin D FRET Assay: Recombinant Cat D was expressed in CHO cells. The assay buffer for CathepsinD is 0.05 M citrate pH 3.5, 10% DMSO final, 5 mM CHAPS. The Cat D enzyme (9 nM) is pre-incubated for one hour with inhibitors, typically in about 1 uL of DMSO according to a serial dilution, is added thereto. The assays are effectively started by the addition of different FRET substrates (20 nM for Cat D) and the combination is incubated for one hour. The FRET assay is terminated with by addition of Tris buffer, which raises the pH to neutrality, and the fluorescence is determined. The FRET substrate is a peptide with commercially available fluorophore and quencher, on opposite sides of the BACE cleavage site. […] Proteolytic cleavage of the FRET substrate releases quenching of fluorescence (Cat D excitation 500 nm and emission 580 nm).; format: cell-based
Sequence of Cathepsin D (P07339 65-162 limits assumed): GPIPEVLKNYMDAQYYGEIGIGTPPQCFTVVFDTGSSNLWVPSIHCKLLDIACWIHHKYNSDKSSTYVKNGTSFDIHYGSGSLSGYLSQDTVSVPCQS
Sequence of Cathepsin D (P07339 169-412 limits assumed): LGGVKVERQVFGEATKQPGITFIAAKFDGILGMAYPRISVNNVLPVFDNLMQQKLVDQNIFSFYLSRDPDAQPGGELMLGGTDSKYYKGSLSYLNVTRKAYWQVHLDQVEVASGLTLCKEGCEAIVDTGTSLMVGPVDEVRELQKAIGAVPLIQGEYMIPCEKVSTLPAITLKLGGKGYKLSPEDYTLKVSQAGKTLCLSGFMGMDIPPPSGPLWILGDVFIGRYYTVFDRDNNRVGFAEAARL

T1 sequence (P56817 whole entry): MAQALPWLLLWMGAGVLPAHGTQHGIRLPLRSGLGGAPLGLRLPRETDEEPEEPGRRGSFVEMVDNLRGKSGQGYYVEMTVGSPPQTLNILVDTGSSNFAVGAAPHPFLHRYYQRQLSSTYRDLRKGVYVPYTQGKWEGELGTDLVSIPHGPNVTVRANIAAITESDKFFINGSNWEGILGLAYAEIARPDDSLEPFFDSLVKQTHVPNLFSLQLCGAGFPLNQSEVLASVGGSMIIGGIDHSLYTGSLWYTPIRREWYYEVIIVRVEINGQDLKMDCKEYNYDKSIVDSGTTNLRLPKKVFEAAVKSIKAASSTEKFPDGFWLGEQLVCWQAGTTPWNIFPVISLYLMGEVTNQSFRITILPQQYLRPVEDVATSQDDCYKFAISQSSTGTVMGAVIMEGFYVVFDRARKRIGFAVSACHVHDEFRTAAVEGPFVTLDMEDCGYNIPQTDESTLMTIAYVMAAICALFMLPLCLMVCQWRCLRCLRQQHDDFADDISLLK

SMILES	IC50 (Beta-secretase 1 [1])	IC50 (Beta-secretase 1 [2])	IC50 (Cathepsin D)	IC50 (Cathepsin D; cho)
COC(=O)c1ccnc(Oc2ccc(F)c([C@]3(CF)C[C@@H](C(F)(F)F)OC(N)=N3)c2)c1	3.56 µM	–	–	–
C#CCOc1ccc(C(=O)Nc2cc(F)c(F)c([C@]3(C)C[C@@H](C(F)(F)F)OC(N)=N3)c2)nc1	0.012 µM	0.01 µM	1190 µM	–
Cc1cc(OCC2CC2)cnc1C(=O)Nc1ccc(F)c([C@]2(CF)C[C@@H](C(F)(F)F)OC(N)=N2)c1	0.487 µM	0.12 µM	–	> 400 µM
